{
  "source": "patent US10092574B2",
  "about": "“Inhibitors of polynucleotide repeat-associated RNA foci and uses thereof” (VALORISATION-RECHERCHE, LIMITED PARTNERSHIP, priority 2013, dated 2018)",
  "assay_type_in_all_cases": "cell-based, human",
  "key": {"Normal or DM1 myoblasts": {"system": "Normal or DM1 myoblasts", "experiment": "Cytotoxicity assay (Hoescht 33342 / propidium iodide, High Content Screening microscope)", "settings": "for cellular toxicity: 7 days (FIG. 10)", "experimental": "The cellular toxicity of compounds 15 and 32, and their analogs was also measured using a validated cytotoxicity assay. Normal or DM1 myoblasts were treated with 20 μM of compound or DMSO. The ratio of viable cells was measured with a High Content Screening microscope in live cells treated with Hoescht 33342 (labels all cells) and propidium iodide (labels dead cells). The total number of cells was counted and the number of dead cells was subtracted to obtain the number of viable cells, which is presented as a ratio (drug-treated versus DMSO-treated cells). The percentage of dead cells was also measured using propidium iodide.\nThe cellular toxicity of the compounds was also measured in a dose-response assay. In this assay, normal (M908) and patient (DM1) myoblasts were treated for 7 days with compound 32 or 196 at concentrations varying from 5 to 60 μM. Cell number and cell death was quantified by High Content Screening microscope, as specified above. […] Indeed, the ratio of viable cells at 20 μM of compound 15 is 0.22 (FIG. 10), while for compound 196, an analogue of compound 15, it is above 1 at the same concentration (FIG. 14C)."}, "CUGBP1": {"system": "CUGBP1", "experiment": "Western blot of CUGBP1 protein levels in myoblasts", "settings": "DM1 myoblasts, 20 μM, 7 days (FIG. 7)", "experimental": "Human myoblasts were obtained from the Myosix institute associated with the Association Frangaise contre les Myopathies (AFM). Five primary myoblast lines were obtained as controls, and one line from a DM1 patient with a 3.8 Kb CTG triplet amplification corresponding to approximately 1250 CTG repeats. The human myoblasts are cultivated in HAM-F10 media (SIGMA N6635) with 15% FBS, 1% chick embryo extract, and 390 ng/ml of dexamethasone. One day before adding compounds, 2×10^5 cells were plated in 100 mm plates (for CUGBP1 western blot or RT-PCR alternative splicing assay) or 2×10^4 cells/well are seeded in 12-well plates containing 12 mm round glass coverslips (for FISH to detect RNA foci). One day after plating, media is replaced with fresh media containing the compounds at the desired concentration in this manner: the media is put in a screw-cap tube and heated at 37° C. The 20 mM compound stock in 100% DMSO is pipetted directly into the media and the tube is mixed well by inversion and gentle vortexing, and immediately overlayed on the cells. Pure DMSO is used for the control cells. Final concentrations on myoblasts are never higher than 0.5%. This procedure is repeated twice during the seven days of treatment, the media is thus replaced with fresh media containing compound every 2-3 days. Cells are collected or fixed for FISH after one week.\nFor Western blots, CUGBP1 was detected with the 3B1-3D11 monoclonal antibody (mAb) (SIGMA C5112) and GAPDH was detected with the 6C5 mAb (Millipore MAB374). The enhanced chemiluminescence signal (ECL) was acquired and quantified with the ChemiDoc™ MP imaging system (Bio-Rad). For alternative splicing assays, total RNA was collected with Trizol™ (Invitrogen), and 1 μg was used for reverse transcription with random primers with the RevertAid™ H Minus M-MuL RT (Fermentas) according to manufacturer's instructions. For MBNL2, PCR amplification was performed with primers 5′-[…]-3′ (SEQ ID NO:1) and 5′-[…]-3′ (SEQ ID NO:2). SERCA1 was amplified with primers 5′-[…]-3′ (SEQ ID NO:3) and 5′-[…]-3′ (SEQ ID NO:4). For TNNT2 (cardiac Troponin T), PCR was carried out with primers 5′-[…]-3′ (SEQ ID NO:5) and 5′-[…]-3′ (SEQ ID NO:6). The alternative splicing of the hnRNPA2/B1 transcript was detected with the primers 5′-[…]-3′ (SEQ ID NO:7) and 5′-[…]-3′ (SEQ ID NO:8). PCR was performed with Taq using standard conditions but the number of amplification cycles was optimized to be in the quantitative range for each gene. The products of PCR amplification were resolved on 3.5% agarose gels containing Gelred™ (Biotium) and images were acquired and quantified with the ChemiDoc™ MP imaging system (Bio-Rad). […]"}, "[1]": {"system": "MBNL2, MBNL1, Sercal and TNNT2 pre-mRNAs", "experiment": "Splicing assays on the panel of MBNL2, MBNL1, Sercal and TNNT2 pre-mRNAs in DM1 myoblasts", "settings": "20 μM, 7 days (FIG. 11)", "experimental": "Human myoblasts were obtained from the Myosix institute associated with the Association Frangaise contre les Myopathies (AFM). Five primary myoblast lines were obtained as controls, and one line from a DM1 patient with a 3.8 Kb CTG triplet amplification corresponding to approximately 1250 CTG repeats. The human myoblasts are cultivated in HAM-F10 media (SIGMA N6635) with 15% FBS, 1% chick embryo extract, and 390 ng/ml of dexamethasone. One day before adding compounds, 2×10^5 cells were plated in 100 mm plates (for CUGBP1 western blot or RT-PCR alternative splicing assay) or 2×10^4 cells/well are seeded in 12-well plates containing 12 mm round glass coverslips (for FISH to detect RNA foci). […]\nFor Western blots, CUGBP1 was detected with the 3B1-3D11 monoclonal antibody (mAb) (SIGMA C5112) and GAPDH was detected with the 6C5 mAb (Millipore MAB374). The enhanced chemiluminescence signal (ECL) was acquired and quantified with the ChemiDoc™ MP imaging system (Bio-Rad). […] The alternative splicing of the hnRNPA2/B1 transcript was detected with the primers 5′-[…]-3′ (SEQ ID NO:7) and 5′-[…]-3′ (SEQ ID NO:8). PCR was performed with Taq using standard conditions but the number of amplification cycles was optimized to be in the quantitative range for each gene. […]"}},
  "note": "“Also recorded” adds a separate entry of the source.",
  "data": [
    {"compound": "CCC(C(=O)Nc1ccc(S(=O)(=O)NC23CC4CC(CC(C4)C2)C3)cc1)c1ccccc1", "note": "(stereo not shown) [Compound 31]", "values": [
      {"measurement": "cellular toxicity", "setting": "Normal or DM1 myoblasts; 20 μM", "result": "exhibits cellular toxicity; also recorded: some toxicity"}
    ]},
    {"compound": "CCCc1c(C(=O)N2CCC(c3ccccc3OC)CC2)cnn1-c1ccccc1", "note": "[Compound 43]", "values": [
      {"measurement": "reduction of CUGBP1 levels", "setting": "CUGBP1", "result": 45, "unit": "%"}
    ]},
    {"compound": "Cc1c(C(=O)N(Cc2ccccc2)Cc2cccs2)cnn1-c1ccc(Cl)cc1", "note": "[Compound 46]", "values": [
      {"measurement": "cellular toxicity", "setting": "Normal or DM1 myoblasts; 20 μM", "result": "little toxicity"}
    ]},
    {"compound": "CCCN(CCC)S(=O)(=O)c1ccc(NC(=O)c2cnn(-c3ccccc3)c2C)cc1", "note": "[Compound 196, N-(4-(N,N-Dipropylsulfamoyl)phenyl)-5-methyl-1-phenyl-1H-pyrazole-4-carboxamide]", "values": [
      {"measurement": "correction of mis-splicing of all the pre-mRNAs tested", "setting": "[1]", "result": "significantly corrects mis-splicing of all the pre-mRNAs tested"},
      {"measurement": "ratio of viable cells (drug-treated versus DMSO-treated)", "setting": "Normal or DM1 myoblasts; 20 μM, 7 days (FIG. 10, FIG. 14C)", "result": "above 1"},
      {"measurement": "main phenotype at higher concentrations", "setting": "Normal or DM1 myoblasts; normal (M908) and DM1 myoblasts, 7 days, 5 to 60 μM", "result": "cytostatic effect"},
      {"measurement": "cytotoxicity in dose-response assay", "setting": "Normal or DM1 myoblasts; normal (M908) and DM1 myoblasts, 7 days, concentration of 20 μM and below (FIGS. 14A-D)", "result": "little cytotoxicity"}
    ]}
  ]
}
